Results from patent publication US20180214395A1 (priority 2017, published 2018).
Where “and” joins values, the source holds several entries; their conditions need not be identical. Equal entries are not always repeated. Entries after “also recorded” stand apart in the source; their conditions may differ. Where two headings read alike, the source gives them in different places.

Legend:
[1] = both, human, in vivo
[2] = Locomotor activity assessment (distance traveled, rearing); assay type: in vivo, rat; details: for Distance traveled min 1-5, Mean / Rearing min 1-5, Mean / Total Distance Traveled, Mean / Total Rearing, Mean: 24 hours prior to testing; for Total Rearing, Mean: 60 minute test
[3] = in vivo
BDNF = BDNF levels (ELISA) in MAD study subjects; assay type: in vivo, human; details: for BDNF, individual subjects: hydrochloride
[4] = Clinical Opiate Withdrawal Scale (COWS) after abrupt discontinuation, MAD study; details: abrupt discontinuation after 10 consecutive days
clinical = details: both, human, in vivo
[5] = Modified Mini Mental State (3MS) in patients with chronic cancer pain (phase I-2a study); assay type: in vivo, human; details: 40 mg every 12 hours for 12 days
[6] = MAD study: pupillary constriction; assay type: in vivo, human; details: mean (SD)
[7] = target: T1, serotonin transporter (SERT or 5-HT) (Rattus norvegicus, UniProt P31652); test: biochemical
[8] = Bond-Lader Visual Analog Scale (cognitive and psychotomimetic effects), SAD and MAD studies
testosterone = test: Serum testosterone levels in male MAD 25 mg subjects; assay type: in vivo, human; details: for Testosterone Levels, individual male subjects: hydrochloride
Forced swim test = assay type: in vivo, rat; details: for Immobility, Mean frequency / Swimming, Mean frequency: single administration 24 hours prior, 60 counts per subject; for Immobility, Mean Diff. (Fisher's PLSD) / Swimming, Mean Diff. (Fisher's PLSD): Vehicle minus treatment
[9] = Novelty-suppressed feeding test (NSFT); assay type: in vivo; details: rat; 72 hr after single dose; ketamine 10 mg/kg ip, d-methadone 20 mg/kg sc
[10] = in vivo; remark: listed apart in the source
[11] = Body weight gain in rats (chronic constrictive nerve injury model experiment); assay type: in vivo; details: rat
[12] = target: T1, serotonin transporter (SERT or 5-HT)
[13] = Female urine sniffing test (FUST); assay type: in vivo; details: rat; 24 hr after single dose; ketamine 10 mg/kg ip, d-methadone 20 mg/kg sc
[14] = target: T2, norepinephrine transporter (NET) (Rattus norvegicus, UniProt Q63380); test: Norepinephrine uptake assay; assay type: biochemical
T2 construct: tissue Eurofins Cerep; host or cells: rat hypothalamus synaptosomes (own knowledge of the vendor's assay)

[15] = human, in vivo
[16] = Single ascending dose (SAD) study in healthy volunteers: pharmacokinetics of d-methadone; details: both, human, in vivo
[17] = rat, 24 h after dosing, one-way ANOVA
[18] = 2-3-5 hours after single dose 5 mg, SAD

T2 sequence (Q63380 1-617): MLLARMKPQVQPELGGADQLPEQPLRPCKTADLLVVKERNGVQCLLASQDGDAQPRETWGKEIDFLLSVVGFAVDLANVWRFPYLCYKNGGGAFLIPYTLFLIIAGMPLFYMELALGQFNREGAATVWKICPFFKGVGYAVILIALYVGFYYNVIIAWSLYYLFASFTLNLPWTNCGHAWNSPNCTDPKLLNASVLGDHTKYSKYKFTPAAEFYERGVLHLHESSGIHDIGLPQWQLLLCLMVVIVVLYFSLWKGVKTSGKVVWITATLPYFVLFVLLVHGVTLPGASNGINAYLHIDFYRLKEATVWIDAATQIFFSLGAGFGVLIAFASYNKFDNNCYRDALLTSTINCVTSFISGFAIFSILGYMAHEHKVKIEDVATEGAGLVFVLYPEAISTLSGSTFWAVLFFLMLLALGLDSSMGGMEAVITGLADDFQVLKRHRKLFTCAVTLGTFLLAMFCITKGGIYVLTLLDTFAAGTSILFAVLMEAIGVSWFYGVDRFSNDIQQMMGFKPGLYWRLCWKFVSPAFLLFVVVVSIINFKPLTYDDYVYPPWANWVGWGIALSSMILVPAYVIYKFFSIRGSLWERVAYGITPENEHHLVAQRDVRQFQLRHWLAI
T1 sequence (P31652 whole entry): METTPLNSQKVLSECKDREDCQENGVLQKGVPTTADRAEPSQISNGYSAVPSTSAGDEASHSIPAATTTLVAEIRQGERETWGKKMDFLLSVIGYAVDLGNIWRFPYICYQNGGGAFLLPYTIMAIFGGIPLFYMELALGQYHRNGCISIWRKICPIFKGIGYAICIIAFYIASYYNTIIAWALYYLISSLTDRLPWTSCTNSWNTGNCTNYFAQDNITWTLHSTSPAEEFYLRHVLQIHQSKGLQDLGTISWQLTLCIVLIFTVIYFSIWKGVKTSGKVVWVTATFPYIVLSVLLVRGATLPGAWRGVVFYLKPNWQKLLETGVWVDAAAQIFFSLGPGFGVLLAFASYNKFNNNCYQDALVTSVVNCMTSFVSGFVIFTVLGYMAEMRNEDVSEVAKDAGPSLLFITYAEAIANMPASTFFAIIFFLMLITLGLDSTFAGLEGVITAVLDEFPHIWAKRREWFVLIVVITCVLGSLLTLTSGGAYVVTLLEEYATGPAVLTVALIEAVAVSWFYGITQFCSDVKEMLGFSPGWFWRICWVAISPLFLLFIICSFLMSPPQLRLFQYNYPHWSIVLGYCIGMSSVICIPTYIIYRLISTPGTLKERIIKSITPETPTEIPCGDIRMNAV

## CCC(=O)C(C[C@H](C)N(C)C)(c1ccccc1)c1ccccc1 [d-methadone]
[1]
  Number of doses to steady state: 6-7 doses
[1]; 25 mg
  AUCtau: 4392 ng·h/mL
[1]; 50 mg
  AUCtau: 10,147 h*ng/mL
[1]; 75 mg
  AUCtau: 10,537 h*ng/mL
[2]; 10 mg/kg
  Distance traveled min 1-5, Mean: 597.167
  Rearing min 1-5, Mean: 26.333
  Total Distance Traveled, Mean: 2605.500 cm/60 min
  Total Rearing, Mean: 119.167
[2]; 20 mg/kg
  Distance traveled min 1-5, Mean: 556.833
  Rearing min 1-5, Mean: 28.667
  Total Distance Traveled, Mean: 2060.667 cm/60 min
  Total Rearing, Mean: 100.167
[2]; 40 mg/kg
  Distance traveled min 1-5, Mean: 447.500
  Rearing min 1-5, Mean: 17.333
  Total Distance Traveled, Mean: 1773.000 cm/60 min
  Total Rearing, Mean: 75.000
[2]; [17]
  Locomotor activity: total distance traveled (60 min): no significant effect
  Locomotor activity: total rearing frequency (60 min): no significant effect
[3]
  Tolerability: well tolerated
BDNF; 25 mg a day for ten days
  Subjects with increase in BDNF levels post treatment vs pre-treatment: 6 of 6
BDNF; 25 mg, healthy volunteers
  BDNF serum levels: significantly increases
BDNF; 50 mg and 75 mg doses, not statistically significant against placebo
  BDNF levels after treatment vs pre-treatment: consistently showed an increase
BDNF; Day 2 hr 4, 25 mg a day oral
  BDNF, individual subjects: BDNF 3.603 ng/L; also recorded: BDNF 2.529 ng/L; also recorded: BDNF 2.038 ng/L; also recorded: BDNF 1.862 ng/L; also recorded: BDNF 8.995 ng/L; also recorded: BDNF 2.750 ng/L
BDNF; Day 6 hr 4, 25 mg a day oral
  BDNF, individual subjects: 4.820 ng/mL and 2.920 ng/mL and 2.348 ng/mL and 2.458 ng/mL and 3.790 ng/mL
BDNF; Day 10 hr 4, 25 mg a day oral
  BDNF, individual subjects: 4.004 ng/mL and 10.697 ng/mL and 2.853 ng/mL and 4.347 ng/mL and 5.459 ng/mL and 3.733 ng/mL
BDNF; Pre-Treatment (baseline), MAD 25 mg subjects
  BDNF, individual subjects: 1.143 ng/mL and BDNF 0.612 ng/mL and 0.376 ng/mL and 0.460 ng/mL and 0.497 ng/mL and 1.922 ng/mL
BDNF; baseline, w/o placebo, N 6
  BDNF_T0 Mean: .83100 ng/mL
BDNF; day 2, 25 mg a day, w/o placebo, N 6
  BDNF_D2 Mean: 3.63 ng/mL
BDNF; day 6, 25 mg a day, w/o placebo, N 5
  BDNF_D6 Mean: 3.267 ng/mL
BDNF; day 10, 25 mg a day, w/o placebo, N 6
  BDNF_D10 Mean: 5.182 ng/mL
[4]
  Withdrawal symptoms (COWS): did not cause symptoms of withdrawal
clinical; 25 mg
  AUC(0-inf): 13000 ng·h/mL
clinical; 25 mg, Tmax
  Tmax: 2.35 h
clinical; 50 mg
  AUC(0-inf): 32000 ng·h/mL
  Cmax: 587 ng/mL
clinical; 75 mg
  AUC(0-inf): 28900 ng·h/mL
  Cmax: 563 ng/mL
[5]
  Patients with 3MS improvement by at least one point: five out of six
[6]; MAD 25 mg, Day 9
  Greatest mean pupillary constriction (MPC): −1.32 (0.553) mm
[6]; MAD 50 mg, Day 6
  Greatest mean pupillary constriction (MPC): −1.43 (0.175) mm
[6]; MAD 75 mg, Day 5
  Greatest mean pupillary constriction (MPC): −2.24 (0.619) mm
[7]
  IC50: 0.12 µM
[8]; [18]
  Bond-Lader VAS mean score: I am feeling drowsy (0: Alert, 100: Drowsy): 19.1
  Bond-Lader VAS mean score: I am feeling proficient (0: Incompetent, 100: Proficient): 93.6
  Bond-Lader VAS mean score: I am feeling quick witted (0: Mentally slow, 100: Quick witted): 91.8
[8]; SAD 5 mg single dose, 2-3-5 hours post dose
  Bond-Lader Visual Analog Scale, domains of mental alertness and cognitive functions, vs placebo arm: improved scores
[8]; healthy subjects of SAD and MAD studies
  Cognitive deficits or psychotomimetic effects (Bond-Lader Visual Analog Scale): did not cause clinically significant cognitive deficits or psychotomimetic effects
testosterone; 25 mg once per day for ten days, three male subjects
  Testosterone serum levels: increased
testosterone; Day 6, 25 mg once a day for 10 days
  Testosterone Levels, individual male subjects: 13.1 nmol/L
testosterone; Day 12, 25 mg once a day for 10 days
  Testosterone Levels, individual male subjects: 14.4 nmol/L and 10.1 nmol/L
testosterone; Follow Up (Day 18 ± 1), 25 mg once a day for 10 days
  Testosterone Levels, individual male subjects: 9.6 nmol/L and 13.6 nmol/L and 8.1 nmol/L
testosterone; Screening (Day −1), baseline, normal range 7.6-31.4
  Testosterone Levels, individual male subjects: 7.4 nmol/L and 9.2 nmol/L and 4.1 nmol/L
Forced swim test; 10 mg/kg
  Immobility, Mean frequency: 31.400
  Swimming, Mean frequency: 20.200
  Immobility, Mean Diff. (Fisher's PLSD): 17.600
  Swimming, Mean Diff. (Fisher's PLSD): −12.978
Forced swim test; 20 mg/kg
  Immobility, Mean frequency: 23.556
  Swimming, Mean frequency: 32.667
  Immobility, Mean Diff. (Fisher's PLSD): 25.444
  Swimming, Mean Diff. (Fisher's PLSD): −25.444
Forced swim test; 40 mg/kg
  Immobility, Mean frequency: 23.200
  Swimming, Mean frequency: 26.200
  Immobility, Mean Diff. (Fisher's PLSD): 25.800
  Swimming, Mean Diff. (Fisher's PLSD): −18.978
[9]
  NSFT: latency to eat in a novel open field: significantly decreased
[10]; both, human
  TEAE: any event: 5 n (%) [number of events]
  TEAE: dizziness: 1 n (%) [number of events]
[10]
  Tolerability: well tolerated
[11]; 10 mg/kg s.c. once daily 15 days
  mean weight gain baseline to day 15: 41 grams
[11]; 20 mg/kg s.c. once daily 15 days
  mean weight gain baseline to day 15: 36 grams
[11]; 40 mg/kg S.C. once daily for 15 days
  Body weight gain vs vehicle-treated animals: lower weight gain
[11]; 40 mg/kg s.c. once daily 15 days
  mean weight gain baseline to day 15: 22 grams
[12]
  inhibition: 91% and 92.7% and 89.3%
[13]
  FUST: time sniffing water: no effect
  FUST: time spent sniffing female urine vs vehicle: increased
[14]
  IC50: 8.2 µM
[14]; 1.0E−05 M
  norepinephrine uptake, % inhibition: 61.6%
[14]; […]
  Inhibition of norepinephrine uptake by NET: significant inhibition
[15]; both
  Maximum QTcF interval observed: 462 ms
  Model-predicted ΔΔQT effect at geometric mean plasma concentration: 16.0 to 21.0 ms
[15]; male
  QTc, individual prolonged value: 434 ms
[16]; 5 mg
  AUC(0-inf): 1190 ng·h/mL
[16]; 5 mg, AUC0-24, SAD 5 mg, mean
  AUC(0-t): 675 ng·h/mL
[16]; 5 mg, AUC0-last, SAD 5 mg, mean
  AUC(0-t): 1250 ng·h/mL
[16]; 5 mg, median, SAD 5 mg
  Cmax: 48.4 ng/mL
[16]; 20 mg
  AUC(0-inf): 6230 ng·h/mL
[16]; 20 mg, AUC0-24, SAD 20 mg, mean
  AUC(0-t): 2310 ng·h/mL
[16]; 20 mg, AUC0-last, SAD 20 mg, mean
  AUC(0-t): 4620 ng·h/mL
[16]; 20 mg, SAD 20 mg, mean
  Cmax: 163 ng/mL
[16]; 60 mg
  AUC(0-inf): 14100 ng·h/mL
[16]; 60 mg, AUC0-24, SAD 60 mg, mean
  AUC(0-t): 5540 ng·h/mL
[16]; 60 mg, AUC0-last, SAD 60 mg, mean
  AUC(0-t): 13600 ng·h/mL
[16]; 60 mg, SAD 60 mg, mean
  Cmax: 404 ng/mL
[16]; 100 mg
  AUC(0-inf): 31100 ng·h/mL
[16]; 100 mg, AUC0-24, SAD 100 mg, mean
  AUC(0-t): 10700 ng·h/mL
[16]; 100 mg, AUC0-last, SAD 100 mg, mean
  AUC(0-t): 29700 ng·h/mL
[16]; 100 mg, SAD 100 mg, mean
  Cmax: 739 ng/mL
[16]; 150 mg
  AUC(0-inf): 32600 ng·h/mL
[16]; 150 mg, AUC0-24, SAD 150 mg, mean
  AUC(0-t): 14600 ng·h/mL
[16]; 150 mg, AUC0-last, SAD 150 mg, mean
  AUC(0-t): 37200 ng·h/mL
[16]; 150 mg, SAD 150 mg, mean
  Cmax: 1060 ng/mL
[16]; 200 mg, AUC0-24, SAD 200 mg, n=1
  AUC(0-t): 20700 ng·h/mL
[16]; 200 mg, AUC0-last, SAD 200 mg, n=1
  AUC(0-t): 67700 ng·h/mL
[16]; 200 mg, SAD 200 mg, n=1
  Cmax: 1530 ng/mL
